Experimental findings from a melting point compilation (Tetko et al.; mined from patent text by program, amines drawn as free bases though some values may be those of a salt) are described below.

Broadly, the melting point is the temperature, or range, at which the solid turns liquid. Take `CCc1ccccc1NC(=O)C(C#N)=CN(C)C`: the melting point lay in the range of 128 to 130 °C. To `COC(=O)C=NOCC(=O)C=CN(C)C` belongs 63 to 64 °C; to `O=C1CCC(N2C(=O)c3cccc(OCc4ccc(CN5CCC(c6ccc(F)cc6F)CC5)cc4)c3C2=O)C(=O)N1` (stereo not given), 153 to 155 °C. Under `CC(=O)c1ccc(S(=O)(=O)NCc2ccccc2-c2ccccc2C(=O)NCCc2ccccc2)cc1` stands 145 °C; under `CCOC(=O)c1c(C)cc2c(=O)n(-c3ccccc3Cl)cnc2c1C`, 151 to 152 °C; under `CC(=O)Nc1ccc(CN(C)C)c(O)c1`, 133 to 135 °C. To `CCOC(=O)c1nc(/C=C/c2ccc([N+](=O)[O-])o2)no1` belongs 138 to 139 °C. In the case of `CCOC(=O)c1c(-c2ccc(OC)c(OC)c2)c2cc(Cl)ccc2[nH]c1=O`, the melting point is 209 to 210 °C. To `CNc1cc(C(C)=O)ccc1OCCCCl` belongs 115 to 117 °C; to `CCOC(=O)N1CCN(c2cc3ccccc3c(=O)[nH]2)CC1`, 191 to 192 °C; to `CCOC(=O)c1ccc(Br)cc1COC(C)=O`, 51.5 to 52.5 °C. To `CCOC(=O)C(NC(C)=O)C(=O)c1ccccc1` (stereo not given) belongs 63 to 64 °C; to `O=C(c1ccc(Cl)cc1)n1cc(Cc2cc(=O)n(C3CCCCC3)[nH]2)c2ccccc21`, 109 to 111 °C. Under `Cc1ccnc(N2CCN(CCCCC3Sc4cc(O)ccc4NC3=O)CC2)c1` (stereo not given) stands 212 °C; under `CC(C)CNC(=O)NCCCl`, 79.5 °C; under `COc1cc(N)c(Cl)cc1C(=O)NC1CCN(C)C1` (stereo not given), 185 to 187 °C. As for `CCOC(=O)N1CCN(C=C2C(=O)Nc3cc(OC)c(OC)cc32)CC1`, the melting point fell in the range of 172 to 174 °C. To `CC(C)c1nn(-c2ccc(Cl)cn2)cc1CCCO` belongs 93 to 95 °C.

For `O=C(CN1CC2C(=O)N(c3cc(Cl)cc(Cl)c3)C(=O)C2C1)c1ccc(Br)cc1` (stereo not given), the melting point was 150 °C. Take `CN(C)c1ncc(NC(=O)c2cc3cc(C(F)(F)F)cnc3n2Cc2cccc(F)c2)cn1`: the melting point was 236 to 238 °C. For `O=C(NN=CC=Cc1ccc([N+](=O)[O-])o1)c1cn2ccsc2n1`, the melting point was determined as 332 °C. Take `Cc1c2c(c3ccccc3c1O)OCC2c1ccc(C(C)C)cc1` (stereo not given): the melting point is 94 to 96 °C. Turning to `FC(F)c1nc2ccccc2n1-c1nc(Nc2ncccn2)nc(N2CCOCC2)n1`, the melting point lay in the range of 261 to 263 °C. For the compound `COCCNC(=O)c1cccc(-c2cccc3cc(Cc4cccc(Cl)c4)sc23)c1`, the melting point fell in the range of 120 to 134 °C.

`CCOc1cc(C(=O)OC)cc(OCC)c1N=Nc1ccccc1` returned a melting point of 92 °C.

The compound `Cc1cccc(-c2cc3cnc(N)nc3nc2N)c1C` gave a melting point of 330 to 333 °C.

With `O=C(O)c1cccc2c1Cc1c-2[nH]c2ccc(Cl)cc12`, the melting point is > 300 °C. On to `CCCCc1nc2ccc(C(=O)O)cc2n1Cc1ccccc1Cl`, for which the melting point lay in the range of 238 to 241 °C. To `COC(=O)c1nn(-c2cccnc2)cc1N` belongs 102 to 108 °C; to `CCCCN(CCCC)c1ccc(C=Cc2cc(C)c(C=CC3=C(C#N)C(=C(C#N)C#N)OC3(C)C(F)(F)F)cc2C)c(OC)c1` (stereo not given), 205 to 207 °C.

Take `CCCCc1oc2ccc(NS(=O)(=O)c3ccc(C)cc3)cc2c1C(=O)c1ccc(OCCCN(CCCC)CCCC)cc1`: the melting point was found to be 110 °C.

`CCC1N=C(c2ccccc2Cl)c2cc(CCC(=O)N3CCOCC3)sc2-n2c(C)nnc21` (stereo not given): the melting point fell in the range of 145 to 147 °C. As for `COc1cc(OC)nc(N2CCN(Cc3ccc(C(C)(C)NC(C)=O)cc3)CC2)n1`, the melting point lay within 199 to 202 °C. Under `O=C(CCCCNCCOc1cccc2cccnc12)NC1CCCCC1` stands 113 to 119 °C; under `Clc1cc(-c2nnn[nH]2)nc(Cl)c1Cl`, 197 to 198 °C.
